This passage reports IC50 results from patent US9533977B2, “Oxazolidinone derivative as CETP inhibitor, its preparation method, and pharmaceutical composition comprising the same” (DONG-A ST CO., LTD., priority 2013, dated 2017).

Molecules are shown by their SMILES.

For this assay, the target named is T1, CETP (Homo sapiens, UniProt P11597).
T1 construct: from tissue; host or cells: human plasma from healthy men
T1 sequence (P11597 18-493): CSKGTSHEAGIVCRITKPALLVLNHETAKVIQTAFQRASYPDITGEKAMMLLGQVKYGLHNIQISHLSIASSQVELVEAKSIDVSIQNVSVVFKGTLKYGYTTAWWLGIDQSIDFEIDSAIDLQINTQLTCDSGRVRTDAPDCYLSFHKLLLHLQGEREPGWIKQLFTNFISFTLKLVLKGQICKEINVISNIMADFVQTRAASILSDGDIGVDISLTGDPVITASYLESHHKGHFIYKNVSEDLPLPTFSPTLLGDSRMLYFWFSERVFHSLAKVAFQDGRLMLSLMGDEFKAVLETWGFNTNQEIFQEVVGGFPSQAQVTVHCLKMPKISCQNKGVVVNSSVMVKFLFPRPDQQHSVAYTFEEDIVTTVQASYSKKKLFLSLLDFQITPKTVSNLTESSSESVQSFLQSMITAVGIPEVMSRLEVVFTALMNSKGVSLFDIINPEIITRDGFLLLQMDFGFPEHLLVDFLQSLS
Description: Inhibitory activity against CETP in human plasma (Roar CETP activity kit, fluorescence). The format is biochemical. Conditions: plasma from healthy men diluted 1:10 in assay buffer, 37° C., 3 hrs, fluorescence 465/535 nm; read-out: IC50, Inhibition of CETP Activity in Human Plasma. As for the experimental part: A CETP activity kit (#RB-CETP) was purchased from Roar […], Inc. A donor and an acceptor (each, 4 ul), a 10× assay buffer (177 ul), and each of dilutions of test compounds in dimethylsulfoxide (DMSO, Sigma-Aldrich) (0.01 nM˜10000 nM) were added to each well of black round-bottom 96-well plates (Corning #3792). Plasma samples from healthy men were diluted in the assay buffer (1:10=plasma:assay buffer), and added to each well. The plates were sealed with a sealing film (Sigma-Aldrich, #Z369659), and incubated in a 37° C. incubator microplate shaker (#SLST-3, Seolin Bio) for 3 hrs. After removal of the sealing film, fluorescence was read on Spectra Max Gemini EM (Molecular devices) with an excitation wavelength of 465 nm and an emission wavelength of 535 nm. Measurements were calculated according to the following formula. Calculated value=(Fluorescence Intensity with both compound and plasma−Fluorescence Intensity with compound but without plasma)/(Fluorescence Intensity with plasma but without compound−Fluorescence Intensity with neither compound nor plasma)
From the calculated value, a sigmoidal curve (y=start+(end-start)x^n/k^n+x^n) was drawn using Origin Software (OriginLab Corporation, ver. 8.0724) to obtain IC50 values.
For the compound `CCN(c1ncc(-c2ccco2)cc1CN1C(=O)O[C@H](c2cc(C(F)(F)F)cc(C(F)(F)F)c2)[C@@H]1C)C1CCOCC1` [Example 49, (4S,5R)-5-[3,5-bis(trifluoromethyl)phenyl]-4-methyl-3-({[2-(ethyl)(tetrahydro-2H-pyran-4-yl)amino]-5-(furan-2-yl)pyridin-3-yl}methyl)-oxazolidin-2-one], the IC50 (commonly the concentration that inhibits the measured activity by half) came out at 23.7 nM.
The same measure for `CCN(c1ncc(-c2c(C)noc2C)cc1CN1C(=O)O[C@H](c2cc(C(F)(F)F)cc(C(F)(F)F)c2)[C@@H]1C)C1CCOCC1` [Example 51]: 12.7 nM.
The result for `CCN(c1ncccc1CN1C(=O)O[C@H](c2cc(C(F)(F)F)cc(C(F)(F)F)c2)[C@@H]1C)C1CCOCC1` [Example 52, (4S,5R)-5-[3,5-bis(trifluoromethyl)phenyl]-4-methyl-3-({[2-(ethyl)(tetrahydro-2H-pyran-4-yl)amino]-pyridin-3-yl}methyl)-oxazolidin-2-one] reads 73.4 nM; that for `CCN(c1ncc(C(F)(F)F)cc1CN1C(=O)O[C@H](c2cc(C(F)(F)F)cc(C(F)(F)F)c2)[C@@H]1C)C1CCCCC1` [Example 53, (4S,5R)-5-[3,5-bis(trifluoromethyl)phenyl]-4-methyl-3-({[2-(ethyl)(cyclohexyl)amino]-5-(trifluoromethyl)pyridin-3-yl}methyl)-oxazolidin-2-one], 5.2 nM.
The same measure for `CCN(c1ncc(C#N)cc1CN1C(=O)O[C@H](c2cc(C(F)(F)F)cc(C(F)(F)F)c2)[C@@H]1C)C1CCCCC1` [Example 54]: 19 nM; for `CCN(c1ncc(OS(C)(=O)=O)cc1CN1C(=O)O[C@H](c2cc(C(F)(F)F)cc(C(F)(F)F)c2)[C@@H]1C)C1CCCCC1` [Example 55, 5-{[(4S,5R)-5-[3,5-bis(trifluoromethyl)phenyl]-4-methyl-2-oxo-oxazolidin-3-yl]methyl}-6-[(cyclohexyl)(ethyl)amino]-pyridin-3-yl methanesulfonate]: 11.1 nM.
As for `Cc1noc(C)c1-c1cnc(N(C)C2CCCCC2)c(CN2C(=O)O[C@H](c3cc(C(F)(F)F)cc(C(F)(F)F)c3)[C@@H]2C)c1` [Example 57, (4S,5R)-5-[3,5-bis(trifluoromethyl)phenyl]-4-methyl-3-({[2-(methyl)(cyclohexyl-4-yl)amino]-5-(3,5-dimethylisoxazol-4-yl)pyridin-3-yl}methyl)-oxazolidin-2-one], the IC50 was determined as 16.7 nM.
The result for `CCN(c1ncc(-c2ccnn2C)cc1CN1C(=O)O[C@H](c2cc(C(F)(F)F)cc(C(F)(F)F)c2)[C@@H]1C)C1CCCCC1` [Example 59, (4S,5R)-5-[3,5-bis(trifluoromethyl)phenyl]-4-methyl-3-({[2-(ethyl)(cyclohexyl)amino]-5-(1-methyl-1H-pyrazol-5-yl)pyridin-3-yl}methyl)-oxazolidin-2-one] reads 5.7 nM; that for `CCN(c1ncc(-c2cc(C(F)(F)F)nn2C)cc1CN1C(=O)O[C@H](c2cc(C(F)(F)F)cc(C(F)(F)F)c2)[C@@H]1C)C1CCCCC1` [Example 60, (4S,5R)-5-[3,5-bis(trifluoromethyl)phenyl]-4-methyl-3-({[2-(ethyl)(cyclohexyl-4-yl)amino]-5-(1-methyl-1H-3-(trifluoromethyl)-pyrazol-5-yl)pyridin-3-yl}methyl)-oxazolidin-2-one], 34.7 nM; that for `CCN(c1ncc(-c2cnn(C)c2)cc1CN1C(=O)O[C@H](c2cc(C(F)(F)F)cc(C(F)(F)F)c2)[C@@H]1C)C1CCCCC1` [Example 62, (4S,5R)-5-[3,5-bis(trifluoromethyl)phenyl]-4-methyl-3-({[2-(ethyl)(cyclohexyl)amino]-5-(1-methyl-1H-pyrazol-4-yl)pyridin-3-yl}methyl)-oxazolidin-2-one], 151 nM.
For the compound `CCN(c1ncc(-c2cc(C)cs2)cc1CN1C(=O)O[C@H](c2cc(C(F)(F)F)cc(C(F)(F)F)c2)[C@@H]1C)C1CCCCC1` [Example 63, (4S,5R)-5-[3,5-bis(trifluoromethyl)phenyl]-4-methyl-3-({[2-(ethyl)(cyclohexyl)amino]-5-(3-methyl-thiophen-5-yl)pyridin-3-yl}methyl)-oxazolidin-2-one], the IC50 turned out to be 18.9 nM.
`CCN(c1ncc(-c2c(C)nn(C)c2C)cc1CN1C(=O)O[C@H](c2cc(C(F)(F)F)cc(C(F)(F)F)c2)[C@@H]1C)C1CCCCC1` [Example 64, (4S,5R)-5-[3,5-bis(trifluoromethyl)phenyl]-3-({[2-(ethyl)(cyclohexyl)amino]-5-(1,3,5-trimethyl-1H-pyrazol-4-yl}pyridin-3-yl}methyl)-oxazolidin-2-one]: the IC50 came out at 29.3 nM.
The result for `CCN(c1ncc(-c2c(C)n[nH]c2C)cc1CN1C(=O)O[C@H](c2cc(C(F)(F)F)cc(C(F)(F)F)c2)[C@@H]1C)C1CCCCC1` [Example 65, (4S,5R)-5-[3,5-bis(trifluoromethyl)phenyl]-4-methyl-3-({[2-(ethyl)(cyclohexyl-4-yl)amino]-5-(3,5-dimethyl-1H-pyrazol-4-yl)pyridin-3-yl}methyl)-oxazolidin-2-one] reads 224 nM; that for `CCN(c1ncc(-c2nnnn2C)cc1CN1C(=O)O[C@H](c2cc(C(F)(F)F)cc(C(F)(F)F)c2)[C@@H]1C)C1CCCCC1` [Example 66, (4S,5R)-5-[3,5-bis(trifluoromethyl)phenyl]-4-methyl-3-({[2-(ethyl)(cyclohexyl)amino]-5-(1-methyl-1H-tetrazol-5-yl)pyridin-3-yl}methyl)-oxazolidin-2-one], 46.3 nM.
`CCN(c1ncc(-c2cn[nH]c2)cc1CN1C(=O)O[C@H](c2cc(C(F)(F)F)cc(C(F)(F)F)c2)[C@@H]1C)C1CCCCC1` [Example 68, (4S,5R)-5-[3,5-bis(trifluoromethyl)phenyl]-4-methyl-3-({[2-(ethyl)(cyclohexyl)amino]-5-(1H-pyrazol-4-yl)pyridin-3-yl}methyl)-oxazolidin-2-one]: the IC50 came to 334 nM.
The result for `CCN(c1ncc(-c2ccc(C#N)s2)cc1CN1C(=O)O[C@@H](c2cc(C(F)(F)F)cc(C(F)(F)F)c2)[C@@H]1C)C1CCCCC1` [Example 71, 5-{5-({(4S,5S)-5-[3,5-bis(trifluoromethyl)phenyl]-4-methyl-2-oxo-oxazolidin-3-yl}methyl)-6-[(cyclohexyl)(ethyl)amino]pyridin-3-yl}-thiophene-2-carbonitrile] reads 6.7 nM; that for `CCN(c1ncc(-c2c[nH]nc2C(F)(F)F)cc1CN1C(=O)O[C@H](c2cc(C(F)(F)F)cc(C(F)(F)F)c2)[C@@H]1C)C1CCCCC1` [Example 72, (4S,5R)-5-[3,5-bis(trifluoromethyl)phenyl]-4-methyl-3-({[2-(ethyl)(cyclohexyl)amino]-5-(3-(trifluoromethyl)-1H-pyrazol-4-yl)pyridin-3-yl}methyl)-oxazolidin-2-one], 169 nM; that for `CCOC(=O)c1c(C)noc1-c1cnc(N(CC)C2CCCCC2)c(CN2C(=O)O[C@H](c3cc(C(F)(F)F)cc(C(F)(F)F)c3)[C@@H]2C)c1` [Example 74], 63.2 nM.
The result for `CCN(c1ncc(-c2ccc(C)o2)cc1CN1C(=O)O[C@H](c2cc(C(F)(F)F)cc(C(F)(F)F)c2)[C@@H]1C)C1CCCCC1` [Example 75, (4S,5R)-5-[3,5-bis(trifluoromethyl)phenyl]-4-methyl-3-({[2-(ethyl)(cyclohexyl)amino]-5-(2-methyl-furan-5-yl)pyridin-3-yl}methyl)-oxazolidin-2-one] reads 31.1 nM.
